Data published in patent publication US8937065B2, “Compositions and methods for modulating a kinase” (Clevexel Pharma, priority 2011, dated 2015).
pIC50: −log10 of the molar value.

Columns and labels:
[1] = system: Interleukin 4/STAT6-STAT6-bla RA1; experiment: Interleukin 4/STAT6-STAT6-bla RA1 inhibition (IL-4-stimulated STAT6 activity in Ramos cells); format: cell-based; details: Homo sapiens; Ramos cells, IL4 stimulated; read-out: IC50 B cells mechanism-based: Ramos cells IL4 stimulated STAT6 activity
Experimental: The inhibition of Interleukin 4/STAT6-STAT6-bla RA1 (activated by IL-4) by several compounds was determined using the Screening Protocol and Assay Conditions (Invitrogen, Madison, Wis.). The assays were performed according to manufacturer's protocols. Example 4, Cell-line Specific Protocols IL-4-stimulated STAT6 activity in Ramos cells for details.
Mechanism-based inhibition assays using compound 7A (Table 1) were performed using GeneBLAzer® Technology (Invitrogen Corporation), according to manufacturer specifications. […] In this state, excitation of the coumarin results in fluorescence resonance energy transfer to the fluorescein moiety and emission of green light. […] Excitation of the coumarin in the presence of Beta-lactamase activity results in a blue fluorescence signal. […]
An activator assay screen was run to obtain the EC80 concentration of the known activator to add in step 3. • 1. […] 4 μL of the EC80 concentration of activator, as determined in an Activator assay, was added to all wells containing compound and known inhibitor to bring the final assay volume to 40 μL. • 4. […] The assay plate was read on a fluorescence plate reader (Tecan Safire) and the data is analyzed. […]
STAT6-bla RA1 cells were thawed. […] The plate was read on a fluorescence plate reader.

IL-2 stimulated PBMCs = experiment: IL-2-stimulated proliferation of PBMC (Cell Titer Glo); details: read-out: IC50 T cells outcome-based: IL-2 stimulated PBMCs Proliferation
Experimental: Fresh blood collection and PBMC separation assay • 1. Three donors were used to collect enough blood samples. The fresh blood was stored in Heparin Sodium tubes. • 2. Transferred blood to 50 ml centrifugal tube. 15 ml of blood was put into a tube. • 3. Added same volume of DPBS into the blood tube and mixed gently. • 4. Slowly underlayed 10 ml Ficoll using pipette (being careful to not disturb the 2 phases). • 5. Centrifuged 30 min at 800 g at RT without break. • 6. Aspirated the buffy coat (containing PBMC) at the interface between serum and ficoll. The PBMC was washed by enough DPBS and centrifuged at 900 g to remove the Ficoll. • 7. Added RPMI-1640 Medium to the collected PBMC and counted the concentration of PBMC. At least 1 million of PBMC were separated from 1 ml of blood.
IL-2-induced proliferation of PBMC by Cell Titer Glow assay • 1. Counted the PBMC numbers and adjusted cell density to 1.0*10^6/ml. • 2. Seeded cells in complete RPMI in the presence of PHA (phytohemagglutinin, 10 ug/ml). • 3. Added 100 μl of cell suspension to the 96-well plate (white) according to the planned plate map. So there were 1.0*10^5 cells in each well. Cultured for 3 days. • 4. Replaced media with complete RPMI plus IL-2, 100 units/ml and compounds, e.g compounds were added only at IL-2 incubation step. Cultured for 2 days. • 5. […] Recorded luminescence with Flexstation 3 and export the data.

hLM T½ (stability) = format: in vitro ADME; details: human, liver microsomes
[2] = 6-day maximum tolerated dose safety study in female ICR nude mice; format: in vivo
Experimental: Compounds of the invention are safe for administration. For example, excellent safety data was obtained in a 6-day maximum tolerated dose study at 100 mg/kg and 300 mg/kg of compound 7A, PO administered to six to eight-week old female ICR nude mice.

[3] = 100 mg/kg and 300 mg/kg PO, 6-day study, female ICR nude mice

O=C(CN1CCOCC1)Nc1cccc(-c2nc(-c3c[nH]c(C(=O)N4CCCC4)c3)cs2)c1 [7A, 2-morpholino-N-(3-(4-(5-(pyrrolidine-1-carbonyl)-1H-pyrrol-3-yl)thiazol-2-yl)phenyl)acetamide]
pIC50 [1]: 7.49
pIC50 (IL-2 stimulated PBMCs): 5.22 to 5.52
half-life (hLM T½ (stability)): 36 min
change in food consumption [2, 3]: no change in food consumption
clinical observation [2, 3]: no abnormalities in clinical observation
necropsy (internal and external) [2, 3]: normal
weight loss [2, 3]: no weight loss
Individual food consumption (g) Day 1 ([2]; PO-High 300 mg/kg): 4.45 g
Individual food consumption (g) Day 6 ([2]; PO-High 300 mg/kg): 5.13 g
Individual food consumption (g) Day 1 ([2]; PO-Low 100 mg/kg): 4.61 g
Individual food consumption (g) Day 6 ([2]; PO-Low 100 mg/kg): 5.44 g
